{"source": "ChEMBL document CHEMBL3046257", "about": "“Response of sweet maize (Zea mays L.) hybrids to halosulfuron” (Crop Prot, 2008)", "format_in_all_cases": "organism-based", "key": {"Zea mays [1]": {"test_system": "Zea mays", "test": "Toxicity in Zea mays Empire (maize) assessed as visible injury at 25 g ai/ha applied shortly post-emergence at three to five-leaf stage using backpack sprayer measured after 7 days", "details": "in vivo, other, 168 h"}, "Zea mays [2]": {"test_system": "Zea mays", "test": "Toxicity in Zea mays GSS9299 (maize) assessed as visible injury at 50 g ai/ha applied shortly post-emergence at three to five-leaf stage using backpack sprayer measured after 7 days", "details": "in vivo, other, 168 h"}, "Zea mays [3]": {"test_system": "Zea mays", "test": "Toxicity in Zea mays GH2041 (maize) assessed as plant height at 25 g ai/ha applied shortly post-emergence at three to five-leaf stage using backpack sprayer measured after 21 days (Rvb =80 cm)", "details": "in vivo, other, 504 h"}, "Zea mays [4]": {"test_system": "Zea mays", "test": "Toxicity in Zea mays GH2547 (maize) assessed as cob size at 50 g ai/ha applied shortly post-emergence at three to five-leaf stage using backpack sprayer (reference value: 315 g)", "details": "in vivo, other"}, "Zea mays [5]": {"test_system": "Zea mays", "test": "Toxicity in Zea mays GH2298 (maize) assessed as plant height at 25 g ai/ha applied shortly post-emergence at three to five-leaf stage using backpack sprayer measured after 21 days (Rvb =80 cm)", "details": "in vivo, other, 504 h"}, "Zea mays [6]": {"test_system": "Zea mays", "test": "Toxicity in Zea mays GG446 (maize) assessed as visible injury at 50 g ai/ha applied shortly post-emergence at three to five-leaf stage using backpack sprayer measured after 14 days", "details": "in vivo, other, 336 h"}, "Zea mays [7]": {"test_system": "Zea mays", "test": "Toxicity in Zea mays GH2684 (maize) assessed as visible injury at 25 g ai/ha applied shortly post-emergence at three to five-leaf stage using backpack sprayer measured after 7 days", "details": "in vivo, other, 168 h"}, "Zea mays [8]": {"test_system": "Zea mays", "test": "Toxicity in Zea mays Empire (maize) assessed as visible injury at 50 g ai/ha applied shortly post-emergence at three to five-leaf stage using backpack sprayer measured after 14 days", "details": "in vivo, other, 336 h"}, "Zea mays [9]": {"test_system": "Zea mays", "test": "Toxicity in Zea mays GH2298 (maize) assessed as cob size at 25 g ai/ha applied shortly post-emergence at three to five-leaf stage using backpack sprayer (reference value: 307 g)", "details": "in vivo, other"}, "Zea mays [10]": {"test_system": "Zea mays", "test": "Toxicity in Zea mays GH2298 (maize) assessed as cob size at 50 g ai/ha applied shortly post-emergence at three to five-leaf stage using backpack sprayer (reference value: 307 g)", "details": "in vivo, other"}, "Zea mays [11]": {"test_system": "Zea mays", "test": "Toxicity in Zea mays GG446 (maize) assessed as plant height at 50 g ai/ha applied shortly post-emergence at three to five-leaf stage using backpack sprayer measured after 21 days (reference value: 85 cm)", "details": "in vivo, other, 504 h"}, "Zea mays [12]": {"test_system": "Zea mays", "test": "Toxicity in Zea mays GSS9299 (maize) assessed as cob size at 25 g ai/ha applied shortly post-emergence at three to five-leaf stage using backpack sprayer (reference value: 292 g)", "details": "in vivo, other"}, "Zea mays [13]": {"test_system": "Zea mays", "test": "Toxicity in Zea mays Empire (maize) assessed as reduction in marketable yield at 25 g ai/ha applied shortly post-emergence at three to five-leaf stage using backpack sprayer", "design": "scale not given: the % may be the effect or the level left", "details": "in vivo, other"}, "Zea mays [14]": {"test_system": "Zea mays", "test": "Toxicity in Zea mays GG446 (maize) assessed as visible injury at 50 g ai/ha applied shortly post-emergence at three to five-leaf stage using backpack sprayer measured after 28 days", "details": "in vivo, other, 672 h"}, "Zea mays [15]": {"test_system": "Zea mays", "test": "Toxicity in Zea mays GH2298 (maize) assessed as visible injury at 50 g ai/ha applied shortly post-emergence at three to five-leaf stage using backpack sprayer measured after 28 days", "details": "in vivo, other, 672 h"}, "Zea mays [16]": {"test_system": "Zea mays", "test": "Toxicity in Zea mays GSS9299 (maize) assessed as cob size at 50 g ai/ha applied shortly post-emergence at three to five-leaf stage using backpack sprayer (reference value: 292 g)", "details": "in vivo, other"}, "Zea mays [17]": {"test_system": "Zea mays", "test": "Toxicity in Zea mays GG446 (maize) assessed as cob size at 50 g ai/ha applied shortly post-emergence at three to five-leaf stage using backpack sprayer (reference value: 379 g)", "details": "in vivo, other"}, "Zea mays [18]": {"test_system": "Zea mays", "test": "Toxicity in Zea mays GSS9299 (maize) assessed as plant height at 25 g ai/ha applied shortly post-emergence at three to five-leaf stage using backpack sprayer measured after 21 days (Rvb =69 cm)", "details": "in vivo, other, 504 h"}, "Zea mays [19]": {"test_system": "Zea mays", "test": "Toxicity in Zea mays GH2547 (maize) assessed as visible injury at 25 g ai/ha applied shortly post-emergence at three to five-leaf stage using backpack sprayer measured after 7 days", "details": "in vivo, other, 168 h"}, "Zea mays [20]": {"test_system": "Zea mays", "test": "Toxicity in Zea mays GG214 (maize) assessed as visible injury at 50 g ai/ha applied shortly post-emergence at three to five-leaf stage using backpack sprayer measured after 14 days", "details": "in vivo, other, 336 h"}, "Zea mays [21]": {"test_system": "Zea mays", "test": "Toxicity in Zea mays GG214 (maize) assessed as visible injury at 25 g ai/ha applied shortly post-emergence at three to five-leaf stage using backpack sprayer measured after 7 days", "details": "in vivo, other, 168 h"}, "Zea mays [22]": {"test_system": "Zea mays", "test": "Toxicity in Zea mays GH2684 (maize) assessed as marketable yield at 50 g ai/ha applied shortly post-emergence at three to five-leaf stage using backpack sprayer (reference value: 15.5 T/ha )", "details": "in vivo, other"}, "Zea mays [23]": {"test_system": "Zea mays", "test": "Toxicity in Zea mays GG214 (maize) assessed as cob size at 25 g ai/ha applied shortly post-emergence at three to five-leaf stage using backpack sprayer (reference value: 292 g)", "details": "in vivo, other"}, "Zea mays [24]": {"test_system": "Zea mays", "test": "Toxicity in Zea mays GH2041 (maize) assessed as visible injury at 25 g ai/ha applied shortly post-emergence at three to five-leaf stage using backpack sprayer measured after 28 days", "details": "in vivo, other, 672 h"}, "Zea mays [25]": {"test_system": "Zea mays", "test": "Toxicity in Zea mays GSS9299 (maize) assessed as plant height at 50 g ai/ha applied shortly post-emergence at three to five-leaf stage using backpack sprayer measured after 21 days (Rvb =69 cm)", "details": "in vivo, other, 504 h"}, "Zea mays [26]": {"test_system": "Zea mays", "test": "Toxicity in Zea mays GH2298 (maize) assessed as visible injury at 50 g ai/ha applied shortly post-emergence at three to five-leaf stage using backpack sprayer measured after 7 days", "details": "in vivo, other, 168 h"}, "Zea mays [27]": {"test_system": "Zea mays", "test": "Toxicity in Zea mays GH2684 (maize) assessed as marketable yield at 25 g ai/ha applied shortly post-emergence at three to five-leaf stage using backpack sprayer (reference value: 15.5 T/ha )", "details": "in vivo, other"}, "Zea mays [28]": {"test_system": "Zea mays", "test": "Toxicity in Zea mays GSS9299 (maize) assessed as marketable yield at 50 g ai/ha applied shortly post-emergence at three to five-leaf stage using backpack sprayer (reference value: 13.2 T/ha )", "details": "in vivo, other"}, "Zea mays [29]": {"test_system": "Zea mays", "test": "Toxicity in Zea mays GG214 (maize) assessed as visible injury at 50 g ai/ha applied shortly post-emergence at three to five-leaf stage using backpack sprayer measured after 7 days", "details": "in vivo, other, 168 h"}, "Zea mays [30]": {"test_system": "Zea mays", "test": "Toxicity in Zea mays GH2547 (maize) assessed as visible injury at 25 g ai/ha applied shortly post-emergence at three to five-leaf stage using backpack sprayer measured after 14 days", "details": "in vivo, other, 336 h"}, "Zea mays [31]": {"test_system": "Zea mays", "test": "Toxicity in Zea mays Empire (maize) assessed as visible injury at 50 g ai/ha applied shortly post-emergence at three to five-leaf stage using backpack sprayer measured after 7 days", "details": "in vivo, other, 168 h"}, "Zea mays [32]": {"test_system": "Zea mays", "test": "Toxicity in Zea mays GSS9299 (maize) assessed as visible injury at 50 g ai/ha applied shortly post-emergence at three to five-leaf stage using backpack sprayer measured after 28 days", "details": "in vivo, other, 672 h"}, "Zea mays [33]": {"test_system": "Zea mays", "test": "Toxicity in Zea mays GH2298 (maize) assessed as plant height at 50 g ai/ha applied shortly post-emergence at three to five-leaf stage using backpack sprayer measured after 21 days (Rvb =80 cm)", "details": "in vivo, other, 504 h"}}}
{"smiles": "COc1cc(OC)nc(NC(=O)NS(=O)(=O)c2c(C(=O)O)c(Cl)nn2C)n1", "note": "[HALOSULFURON]", "values": [{"measurement": "Activity", "setting": "Zea mays [1]", "value": 4, "unit": "%"}, {"measurement": "Activity", "setting": "Zea mays [2]", "value": 2, "unit": "%"}, {"measurement": "Activity", "setting": "Zea mays [3]", "value": 76, "unit": "cm"}, {"measurement": "Activity", "setting": "Zea mays [4]", "value": 312, "unit": "g"}, {"measurement": "Activity", "setting": "Zea mays [5]", "value": 76, "unit": "cm"}, {"measurement": "Activity", "setting": "Zea mays [6]", "value": 0, "unit": "%"}, {"measurement": "Activity", "setting": "Zea mays [7]", "value": 4, "unit": "%"}, {"measurement": "Activity", "setting": "Zea mays [8]", "value": 6, "unit": "%"}, {"measurement": "Activity", "setting": "Zea mays [9]", "value": 315, "unit": "g"}, {"measurement": "Activity", "setting": "Zea mays [10]", "value": 308, "unit": "g"}, {"measurement": "Activity", "setting": "Zea mays [11]", "value": 82, "unit": "cm"}, {"measurement": "Activity", "setting": "Zea mays [12]", "value": 301, "unit": "g"}, {"measurement": "Activity", "setting": "Zea mays [13]", "value": 14, "unit": "%"}, {"measurement": "Activity", "setting": "Zea mays [14]", "value": 0, "unit": "%"}, {"measurement": "Activity", "setting": "Zea mays [15]", "value": 1, "unit": "%"}, {"measurement": "Activity", "setting": "Zea mays [16]", "value": 297, "unit": "g"}, {"measurement": "Activity", "setting": "Zea mays [17]", "value": 387, "unit": "g"}, {"measurement": "Activity", "setting": "Zea mays [18]", "value": 68, "unit": "cm"}, {"measurement": "Activity", "setting": "Zea mays [19]", "value": 1, "unit": "%"}, {"measurement": "Activity", "setting": "Zea mays [20]", "value": 1, "unit": "%"}, {"measurement": "Activity", "setting": "Zea mays [21]", "value": 1, "unit": "%"}, {"measurement": "Crop_yield", "setting": "Zea mays [22]", "value": 15.2, "unit": "tons/ha"}, {"measurement": "Activity", "setting": "Zea mays [23]", "value": 293, "unit": "g"}, {"measurement": "Activity", "setting": "Zea mays [24]", "value": 0, "unit": "%"}, {"measurement": "Activity", "setting": "Zea mays [25]", "value": 68, "unit": "cm"}, {"measurement": "Activity", "setting": "Zea mays [26]", "value": 6, "unit": "%"}, {"measurement": "Crop_yield", "setting": "Zea mays [27]", "value": 15.5, "unit": "tons/ha"}, {"measurement": "Crop_yield", "setting": "Zea mays [28]", "value": 12.8, "unit": "tons/ha"}, {"measurement": "Activity", "setting": "Zea mays [29]", "value": 3, "unit": "%"}, {"measurement": "Activity", "setting": "Zea mays [30]", "value": 0, "unit": "%"}, {"measurement": "Activity", "setting": "Zea mays [31]", "value": 8, "unit": "%"}, {"measurement": "Activity", "setting": "Zea mays [32]", "value": 1, "unit": "%"}, {"measurement": "Activity", "setting": "Zea mays [33]", "value": 76, "unit": "cm"}]}
